This note sets out measurements from patent US11505536B2, “Dihydroorotate dehydrogenase inhibitors” (Janssen Biotech, Inc., priority 2019, dated 2022).

pIC50: −log10 of the molar value.

Test [1] addresses human DHODH (Homo sapiens (Human), UniProt Q02127). Nature of the test: DHODH Enzymatic Assay. It is filed as biochemical. The following applies: purified human DHODH, DCIP absorbance, end-point mode; read-out: hDHODH IC50. As for the experimental part: The following assay is referred to herein as the “DHODH Enzymatic Assay.” To detect DHODH enzyme activities, dichloroindophenol (DCIP) is added as the final electron acceptor in the assay. DCIP can accept electrons from the reduced coenzyme Q generated in the assay, or from dihydroorotate (DHO) via FMN by binding presumably to the ubiquinone pocket. DCIP solutions are blue, with an intense absorbance around 600 nm, but becomes colorless upon reduction (J. Biol. Chem. (1986) 261, 11386). The assay buffer contained […], pH 7.5, 150 mM NaCl, 0.5 mM EDTA, and 0.1% Triton X-100 in MilliQ water. Substrate consisting of 20 mM DHO, 5 mM CoQ6, and 1 mM DCIP in assay buffer, initiates the reaction. The assay is run in end-point mode by quenching the reaction with the potent DHODH inhibitor brequinar. Absorbance measurements were obtained using the BMG Phera Star plate-reading spectrophotomer. Purified human DHODH was purchased from Proteros (cat. No. PR-0044). Chemicals were purchased from Sigma-Aldrich, Teknova, and Avanti Polar Lipids. Liquid handling was performed using Labcyte Echo and Formulatrix Tempest.

The subject of test [2] is MOLM-13 cells (human acute myeloid leukemia cells). Nature of the test: MOLM-13 Cellular Assay. It is filed as cell-based. The following applies: Homo sapiens, MOLM-13, 72 h, 72 hours exposure, cell viability by CellTiter-Glo. The protocol: The following assay is referred to herein as the “MOLM-13 Cellular Assay.” MOLM-13 cells (human acute myeloid leukemia cells) were obtained from DSMZ and were maintained in RPMI 1640+Glutamax+25 mM HEPES (Invitrogen, catalog number 72400) supplemented with 10% heat inactivated fetal bovine serum (FBS; Invitrogen, catalog number 16140). The day prior to assay set-up, cells were pelleted, resuspended in fresh media, counted, and cells were plated at 0.4×10^6 cell/mL in a T150 flask. On the day of the assay, cells were pelleted, resuspend in fresh media, counted and seeded at 5,000 cells/well in white opaque 96-well tissue culture treated microplates (Perkin Elmer, catalog number 6005680). Cells were exposed to different concentrations of test compounds at 37° C., 5% CO2 for 72 hours immediately after seeding. Cell viability was acquired on a Perkin Elmer Envision 2104 multilabel reader using the CellTiter-Glo assay (Promega) according to the manufacturer's instructions.

Chain of human DHODH (Q02127 whole entry): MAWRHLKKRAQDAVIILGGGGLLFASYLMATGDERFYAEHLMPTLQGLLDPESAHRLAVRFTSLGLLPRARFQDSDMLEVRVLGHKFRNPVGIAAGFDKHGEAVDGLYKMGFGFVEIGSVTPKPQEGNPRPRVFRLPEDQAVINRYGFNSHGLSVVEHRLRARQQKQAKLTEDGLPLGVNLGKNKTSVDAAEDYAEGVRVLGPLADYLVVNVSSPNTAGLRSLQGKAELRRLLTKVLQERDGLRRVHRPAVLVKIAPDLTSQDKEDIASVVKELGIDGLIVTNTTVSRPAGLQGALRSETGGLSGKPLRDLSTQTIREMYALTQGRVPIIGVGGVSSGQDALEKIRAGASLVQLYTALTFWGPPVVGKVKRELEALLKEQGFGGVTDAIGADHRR

Regarding `CCC(C)c1cn(-c2c(F)cccc2Cl)c(=O)c2cc(F)c(-n3nc(CO)n(CC)c3=O)cc12` (racemic) [Example 48, Racemic-4-(sec-Butyl)-2-(2-chloro-6-fluorophenyl)-6-(4-ethyl-3-(hydroxymethyl)-5-oxo-4,5-dihydro-1H-1,2,4-triazol-1-yl)-7-fluoroisoquinolin-1(2H)-one], the pIC50 in test [1] is 9.04; in test [2], 9.22.

Turning to `CCn1c(CO)nn(-c2cc3c(C(C)C(F)(F)F)nn(-c4ccccc4C)c(=O)c3cc2F)c1=O` (racemic) [Example 55, Racemic 6-(4-Ethyl-3-(hydroxymethyl)-5-oxo-4,5-dihydro-1H-1,2,4-triazol-1-yl)-7-fluoro-2-(o-tolyl)-4-(1,1,1-trifluoropropan-2-yl)phthalazin-1(2H)-one], the pIC50 was 8.92 in test [1] and 9.30 in test [2].

Take `CCn1c(CO)nn(-c2cc3c(C(C)C(F)(F)F)cn(-c4ccccc4C)c(=O)c3cc2F)c1=O` (racemic) [Example 88, Racemic-6-(4-Ethyl-3-(hydroxymethyl)-5-oxo-4,5-dihydro-1H-1,2,4-triazol-1-yl)-7-fluoro-2-(o-tolyl)-4-(1,1,1-trifluoropropan-2-yl)isoquinolin-1(2H)-one]: the negative logarithm of the IC50 (pIC50) is 9.28 in test [1] and 9.05 in test [2].

On to `CCn1c(CO)nn(-c2cc3c(C(C)C)cn([C@H]4CC[C@@H](OC)C4)c(=O)c3cc2F)c1=O` (racemic) [Example 119, Racemic 6-(4-Ethyl-3-(hydroxymethyl)-5-oxo-4,5-dihydro-1H-1,2,4-triazol-1-yl)-7-fluoro-4-isopropyl-2-((cis)-3-methoxycyclopentyl)isoquinolin-1(2H)-one], for which the negative logarithm of the IC50 (pIC50) in test [1] and in test [2] was 8.00 throughout.

As for `CCn1c(CO)nn(-c2cc3c(C(C)C)cn([C@H]4CCC[C@@H](OC)C4)c(=O)c3cc2F)c1=O` (racemic) [Example 127, Racemic 6-(4-Ethyl-3-(hydroxymethyl)-5-oxo-4,5-dihydro-1H-1,2,4-triazol-1-yl)-7-fluoro-4-isopropyl-2-((cis)-3-methoxycyclohexyl)isoquinolin-1(2H)-one], the pIC50 in test [1] is 6.74; in test [2], < 7.00.

For the molecule `CCn1c(CO)nn(-c2cc3c([C@H](C)C(F)(F)F)nn(-c4ccccc4C)c(=O)c3cc2F)c1=O` (single isomer, unassigned) [Example 56, (S*)-6-(4-Ethyl-3-(hydroxymethyl)-5-oxo-4,5-dihydro-1H-1,2,4-triazol-1-yl)-7-fluoro-2-(o-tolyl)-4-(1,1,1-trifluoropropan-2-yl)phthalazin-1(2H)-one], the values for the pIC50 in test [1] and in test [2] were 8.64 and 8.70, respectively.

In the case of `CCn1c(CO)nn(-c2cc3c([C@@H](C)C(F)(F)F)nn(-c4ccccc4C)c(=O)c3cc2F)c1=O` (single isomer, unassigned) [Example 57, (R*)-6-(4-Ethyl-3-(hydroxymethyl)-5-oxo-4,5-dihydro-1H-1,2,4-triazol-1-yl)-7-fluoro-2-(o-tolyl)-4-(1,1,1-trifluoropropan-2-yl)phthalazin-1(2H)-one], the pIC50 in test [1] was 8.94; in test [2] it was 9.00.

As to `CCn1c(CO)nn(-c2cc3c(C(C)C)cn([C@@H]4CCCC[C@H]4C)c(=O)c3cc2F)c1=O` (stereo in doubt) [Example 120, 6-(4-Ethyl-3-(hydroxymethyl)-5-oxo-4,5-dihydro-1H-1,2,4-triazol-1-yl)-7-fluoro-4-isopropyl-2-((1R*,2R*)-2-methylcyclohexyl)isoquinolin-1(2H)-one], the results for the negative logarithm of the IC50 (pIC50) in test [1] and in test [2] were 8.77 and 9.00, respectively.

`CCn1c(CO)nn(-c2cc3c(C(C)C)cn([C@H]4CCCC[C@@H]4C)c(=O)c3cc2F)c1=O` (stereo in doubt) [Example 121, 6-(4-Ethyl-3-(hydroxymethyl)-5-oxo-4,5-dihydro-1H-1,2,4-triazol-1-yl)-7-fluoro-4-isopropyl-2-((1S*,2S*)-2-methylcyclohexyl)isoquinolin-1(2H)-one]: the values for the negative-log IC50 (pIC50) in test [1] and in test [2] were 8.13 and 8.40, respectively.

Consider `CCn1c(CO)nn(-c2cc3c(C(C)C)cn([C@@H]4CCC[C@H]4C)c(=O)c3cc2F)c1=O` (stereo in doubt) [Example 123, 6-(4-Ethyl-3-(hydroxymethyl)-5-oxo-4,5-dihydro-1H-1,2,4-triazol-1-yl)-7-fluoro-4-isopropyl-2-((1R*,2R*)-2-methylcyclopentyl)isoquinolin-1(2H)-one], for which the pIC50 in test [1] was 7.77; in test [2], 8.05.

As for `CCn1c(CO)nn(-c2cc3c(C(C)C)cn([C@H]4CCC[C@@H]4C)c(=O)c3cc2F)c1=O` (stereo in doubt) [Example 124, 6-(4-Ethyl-3-(hydroxymethyl)-5-oxo-4,5-dihydro-1H-1,2,4-triazol-1-yl)-7-fluoro-4-isopropyl-2-((1S*,2S*)-2-methylcyclopentyl)isoquinolin-1(2H)-one], the negative logarithm of the IC50 (pIC50) in test [1] is 8.87; in test [2], 9.05.

Turning to `CCn1c(CO)nn(-c2ccc3c(=O)n(-c4cccc(F)c4)cc(C(C)(C)O)c3c2)c1=O` [Example 25, 6-(4-Ethyl-3-(hydroxymethyl)-5-oxo-4,5-dihydro-1H-1,2,4-triazol-1-yl)-2-(3-fluorophenyl)-4-(2-hydroxypropan-2-yl)isoquinolin-1(2H)-one], in test [1], the pIC50 is 5.37.

In the case of `C=C(C)c1nn(-c2c(F)cccc2Cl)c(=O)c2cc(F)c(-n3nc(CO)n(CC)c3=O)cc12` [Example 27, 2-(2-Chloro-6-fluorophenyl)-6-(4-ethyl-3-(hydroxymethyl)-5-oxo-4,5-dihydro-1H-1,2,4-triazol-1-yl)-7-fluoro-4-(prop-1-en-2-yl)phthalazin-1(2H)-one], in test [1], the negative logarithm of the IC50 (pIC50) is 9.49.

Take `C=C(C)c1nn(-c2c(F)cccc2Cl)c(=O)c2cc(-n3nc(CO)n(CC)c3=O)c(F)cc12` [Example 28, 2-(2-Chloro-6-fluorophenyl)-7-(4-ethyl-3-(hydroxymethyl)-5-oxo-4,5-dihydro-1H-1,2,4-triazol-1-yl)-6-fluoro-4-(prop-1-en-2-yl)phthalazin-1(2H)-one]: in test [1], the pIC50 is 8.30.

Regarding `C=C(C)c1nn(-c2c(F)cccc2Cl)c(=O)c2cc(OC)c(-n3nc(CO)n(CC)c3=O)cc12` [Example 29, 2-(2-Chloro-6-fluorophenyl)-6-(4-ethyl-3-(hydroxymethyl)-5-oxo-4,5-dihydro-1H-1,2,4-triazol-1-yl)-7-methoxy-4-(prop-1-en-2-yl)phthalazin-1(2H)-one], the negative logarithm of the IC50 (pIC50) in test [1] was 7.08.

For `C=C(C)c1nn(-c2c(F)cccc2Cl)c(=O)c2cc(-n3nc(CO)n(CC)c3=O)c(OC)cc12` [Example 30, 2-(2-Chloro-6-fluorophenyl)-7-(4-ethyl-3-(hydroxymethyl)-5-oxo-4,5-dihydro-1H-1,2,4-triazol-1-yl)-6-methoxy-4-(prop-1-en-2-yl)phthalazin-1(2H)-one], the pIC50 in test [1] was 5.46.

In the case of `C=C(C)c1cn(-c2cc(F)ccc2C)c(=O)c2cc(F)c(-n3nc(CO)n(CC)c3=O)cc12` [Example 82, 6-(4-Ethyl-3-(hydroxymethyl)-5-oxo-4,5-dihydro-1H-1,2,4-triazol-1-yl)-7-fluoro-2-(5-fluoro-2-methylphenyl)-4-(prop-1-en-2-yl)isoquinolin-1(2H)-one], the negative logarithm of the IC50 (pIC50) in test [1] was 9.60.

As for `CCn1c(CO)nn(-c2cc3c(C(C)C)cn(-c4cccnc4OC)c(=O)c3cc2F)c1=O` [Example 90, 6-(4-Ethyl-3-(hydroxymethyl)-5-oxo-4,5-dihydro-1H-1,2,4-triazol-1-yl)-7-fluoro-4-isopropyl-2-(2-methoxypyridin-3-yl)isoquinolin-1(2H)-one], the pIC50 in test [1] is 7.68.

`CCn1c(CO)nn(-c2cc3c(C(C)C)cn(-c4ccccc4Cl)c(=O)c3cc2F)c1=O` [Example 117, 2-(2-Chlorophenyl)-6-(4-ethyl-3-(hydroxymethyl)-5-oxo-4,5-dihydro-1H-1,2,4-triazol-1-yl)-7-fluoro-4-isopropylisoquinolin-1(2H)-one] gave a pIC50 in test [2] of 9.52.

In test [2], `CCn1c(CO)nn(-c2nc3c(C(C)C)cn(-c4ccccc4C(F)(F)F)c(=O)c3cc2F)c1=O` [Example 133, 2-(4-Ethyl-3-(hydroxymethyl)-5-oxo-4,5-dihydro-1H-1,2,4-triazol-1-yl)-3-fluoro-8-isopropyl-6-(2-(trifluoromethyl)phenyl)-1,6-naphthyridin-5(6H)-one] had a negative-log IC50 (pIC50) of 8.70.

In the case of `CCn1c(CO)nn(-c2cc3c(C(C)C)cn(-c4nc(C)ccc4C)c(=O)c3cc2F)c1=O` [Example 134, 2-(3,6-Dimethylpyridin-2-yl)-6-(4-ethyl-3-(hydroxymethyl)-5-oxo-4,5-dihydro-1H-1,2,4-triazol-1-yl)-7-fluoro-4-isopropylisoquinolin-1(2H)-one], in test [2], the negative logarithm of the IC50 (pIC50) is 8.10.

One may read the pIC50 as the negative decadic logarithm of the IC50, by convention in mol/L.
